This is an account of results in patent US12552797B2, “Process for making (3-[cyclopropylethoxy(difluoro)methyl]-6-6[5-fluoro-6-(2,2,2-trifluoroethoxy-3-pyridyl]- [1,2,4]triazolo[4,3-a]pyrazine” (Praxis Precision Medicines, Inc., priority 2019, dated 2026).

This data set is described as follows: Phase 1 single/multiple ascending dose and food effect trial in healthy volunteers: safety and tolerability. The class given is in vivo, human.
Excerpt: This is a three-part clinical trial to evaluate the safety, tolerability, PK, and food effect of Compound 1 in healthy volunteers aged 18 to 55 years inclusive. The clinical trial is comprised of the following 3 parts: • Part A is randomized, double-blinded and placebo-controlled. Part A is designed to investigate the safety and PK of single ascending doses of Compound 1. • Part B is randomized, double-blinded and placebo-controlled. […]
Dosing in each dose level cohort starts with 2 sentinel participants with one of the 2 participants randomized to receive Compound 1 and the other participant randomized to receive placebo. The safety and tolerability of each sentinel participant are monitored until Day 6 and reviewed prior to dosing the remainder of participants in each cohort. […]
(§1) A dose level is evaluated in Part B if determined to be safe and tolerable in Part A. It is anticipated that 3 dose levels are evaluated in Part B in a total of 3 cohorts (Cohorts B1-B3). […]
as §1

`CCOC(F)(F)c1nnc2cnc(-c3cnc(OCC(F)(F)F)c(F)c3)cn12` [Compound 1, 3-(ethoxydifluoromethyl)-6-(5-fluoro-6-(2,2,2-trifluoroethoxy)pyridin-3-yl)-[1,2,4]triazolo[4,3-a]pyrazine]: the tolerability result (Part A single ascending doses, first four of six planned cohorts, preliminary analysis) was “well tolerated”. In addition, the “Serious Adverse Events, severe Adverse Events, or Adverse Events leading to study withdrawal or discontinuation” value (Part A, first three cohorts tested) is given as “no reported”.
